Experimental data as given in a melting point compilation (Tetko et al.; mined from patent text by program, amines drawn as free bases though some values may be those of a salt).

Structure (SMILES)	melting point
COc1cccc2c(COCCC(c3ccccc3)c3ccccc3)coc12	147 to 149 °C
O=COC1(N=NC2(OC=O)CCCCC2)CCCCC1	97 to 99.5 °C
O=Cc1cc(-c2ncco2)ccc1Br	100 to 104 °C
COc1cccc(OCC(O)c2cccc(OCc3ccc4ccccc4n3)c2)c1 (stereo not given)	103 to 105 °C
COC(=O)c1ccc(OCc2ccc(Cl)cc2)cc1O	119 to 121 °C
O=C(NO)c1cnc(N2CCC(CNS(=O)(=O)c3ccc(C(=O)Nc4ccc(Cl)c(-c5ccccn5)c4)c(Cl)c3)CC2)nc1	172 to 173 °C
CS(=O)(=O)Nc1ccccc1OC1CCCCC1	113 to 115 °C
Nc1c2c(nc3ccc(F)cc13)CCCC2	229 to 230 °C
COc1cc(OC)cc(-c2ncn(-c3ccc(C(F)(F)F)cc3)c2-c2ccc(N(C)C)cc2)c1	84 to 84.5 °C
Cc1nn(C)c(-n2ccc3cc(Cl)ccc32)c1CCS(=O)(=O)NC(=O)OCC1CC1	170 °C
CCn1c(C#N)ccc1-c1ccc2c(c1)C(C)(C)OC(=O)N2	200 to 202 °C
O=C(NS(=O)(=O)c1ccccc1)c1ccc(C=CC(=O)N2CCc3c([nH]c4ccccc34)C2c2ccc3c(c2)OCO3)cc1 (stereo not given)	134 °C
OCc1ccc2ccccc2c1Br	101 to 102 °C
CCCCC[C@H]1CC[C@H](c2ccc(F)c(F)c2)CC1	-9.5 °C
OC1(c2ccccc2)CCN(CCC2Cc3ccccc3O2)CC1 (stereo not given)	107 °C
CCOC(=O)C(C)(C)c1ccc(NC(C)=O)cc1	76 to 76.5 °C
CN(CCN(C)S(=O)(=O)c1ccc(F)cc1)C(=O)c1ccc(Nc2ccnc3cc(C(F)(F)F)ccc23)cc1	191 to 193 °C
COc1ccc2cnc(N)nc2c1C1CCCC1	181 to 183 °C
O=c1nc(N2CCCC(O)C2)sc2ncccc12 (stereo not given)	208 to 211 °C
O=[N+]([O-])c1ccc2c3c([nH]c2c1)CCCCCC3	119 to 120 °C
O=[N+]([O-])c1c(Cl)cc(-c2n[nH]cc2Cl)cc1Cl	177 °C
C#CCOc1nc(-c2ccc(OC)cc2)n(-c2ccc(OC)cc2)n1	81 to 82 °C
CCCCCCCCCCCCCCCCc1nc(N(C)C)nc(OC)c1Br	66 to 67 °C
O=C(O)CC(c1ccc(OCc2ccc3ccccc3n2)cc1)c1ccc(OCc2ccc3ccccc3n2)cc1	94 to 111 °C
NS(=O)(=O)c1ccccc1S(=O)(=O)NC1CC1	202 to 203 °C
CC(=O)Nc1ccsc1C(=O)c1ccccc1	93 to 95 °C
C=C(C(=O)c1cc(C)cc(C)c1O)c1ccccc1	83 to 84 °C

Next, values leading:

melting point	Structure (SMILES)
92 to 93 °C	CCN1c2ncc(CSc3ccccc3)cc2C(=O)N(C)c2ccc(Cl)nc21
83 to 84 °C	O=C(O)CCCOc1cccc(C2CCCCC2)c1
155 to 157 °C	N#CCCCNC(=O)c1nn(C2CCCCO2)cc1NC(=O)c1ccccn1 (stereo not given)
48 °C	CC(C)(C)c1ccc(CN2CCN(c3ccccc3)CC2)o1
157 to 159 °C	Cc1csn(-c2ccc(Cl)cc2)c1=O
285 to 289 °C	Nc1ncc(S(=O)(=O)Nc2ccc(Br)c3c(Cl)c[nH]c23)cn1
173 to 174 °C	O=C(CCC(=O)N1CCN(c2ccc(N3C[C@H](CNC(=S)C4CC4)OC3=O)cc2F)CC1)c1ccc(CN2CCOCC2)cc1
182 °C	O=C(OC(c1ccccc1)c1ccccc1)C(=O)N1C(=O)[C@@H]2N=C(c3ccccc3)O[C@@H]21
83 to 83.5 °C	COc1cccc(C2OCC(C)(C)C2(O)C(C)(C)C)c1 (stereo not given)
140 to 142 °C	CCOC(=O)c1c(N)[nH]c2cccc(Cl)c12
193 to 197 °C	CC(C)c1cccc(C(C)C)c1NC(=O)[C@H](CCc1ccccc1)NC(=O)OC(C)(C)C
127 °C	Cc1c(Cl)c(C=O)c(C)c2c1CC(C)(C)C2
183 °C	CC(=O)N[C@H]1CC[C@H](CCN2CCC(c3cccc4c3CCO4)CC2)CC1
